In patent publication US20070197609A1, “SALTS OF INDUCIBLE NITRIC OXIDE SYNTHASE DIMERIZATION INHIBITORS” (KALYPSYS, INC., priority 2005, published 2007):

Experiments:
[1] = Solubility in selected solvents; assay type: physicochemical; settings: thermodynamic from solid
Method: The solubility of Compound 2 acetate was investigated with regard to potential process and formulation solvents. The solubility of Compound 2 acetate was evaluated by preparing saturated solution of Compound 2 in the selected solvents, filtering the samples (0.22 μm), diluting, and determining concentration by external standard HPLC using a rapid analysis assay.

[2] = Moisture sorption/desorption analysis for hygroscopicity; assay type: physicochemical; settings: for hygroscopicity: moisture sorption/desorption behavior; for initial weight loss upon equilibration: at 5% RH; for total weight gain: at 95% RH
Description: This weight was gradually regained by approximately 75% RH with a total weight gain of approximately 0.64% at 95% RH. Slightly more weight was lost during desorption with litle hysterisis.
The moisture sorption/desorption profiles of Compound 2 hydrochloride, Compound 2 acetate, and compound 2 adipate are presented in Table 7. […] Relative humidity was then increased and weight measurements taken at regular intervals. Change is given as percent of original sample.

heNOS = molecular target: T1, heNOS (Homo sapiens, UniProt P29474); settings: DAN assay, HEK293 cells transfected with NOS isoform; cited from earlier work
T1 construct: expressed in transfected cells; host or cells: HEK293
T1 sequence (P29474 2-1203 limits assumed): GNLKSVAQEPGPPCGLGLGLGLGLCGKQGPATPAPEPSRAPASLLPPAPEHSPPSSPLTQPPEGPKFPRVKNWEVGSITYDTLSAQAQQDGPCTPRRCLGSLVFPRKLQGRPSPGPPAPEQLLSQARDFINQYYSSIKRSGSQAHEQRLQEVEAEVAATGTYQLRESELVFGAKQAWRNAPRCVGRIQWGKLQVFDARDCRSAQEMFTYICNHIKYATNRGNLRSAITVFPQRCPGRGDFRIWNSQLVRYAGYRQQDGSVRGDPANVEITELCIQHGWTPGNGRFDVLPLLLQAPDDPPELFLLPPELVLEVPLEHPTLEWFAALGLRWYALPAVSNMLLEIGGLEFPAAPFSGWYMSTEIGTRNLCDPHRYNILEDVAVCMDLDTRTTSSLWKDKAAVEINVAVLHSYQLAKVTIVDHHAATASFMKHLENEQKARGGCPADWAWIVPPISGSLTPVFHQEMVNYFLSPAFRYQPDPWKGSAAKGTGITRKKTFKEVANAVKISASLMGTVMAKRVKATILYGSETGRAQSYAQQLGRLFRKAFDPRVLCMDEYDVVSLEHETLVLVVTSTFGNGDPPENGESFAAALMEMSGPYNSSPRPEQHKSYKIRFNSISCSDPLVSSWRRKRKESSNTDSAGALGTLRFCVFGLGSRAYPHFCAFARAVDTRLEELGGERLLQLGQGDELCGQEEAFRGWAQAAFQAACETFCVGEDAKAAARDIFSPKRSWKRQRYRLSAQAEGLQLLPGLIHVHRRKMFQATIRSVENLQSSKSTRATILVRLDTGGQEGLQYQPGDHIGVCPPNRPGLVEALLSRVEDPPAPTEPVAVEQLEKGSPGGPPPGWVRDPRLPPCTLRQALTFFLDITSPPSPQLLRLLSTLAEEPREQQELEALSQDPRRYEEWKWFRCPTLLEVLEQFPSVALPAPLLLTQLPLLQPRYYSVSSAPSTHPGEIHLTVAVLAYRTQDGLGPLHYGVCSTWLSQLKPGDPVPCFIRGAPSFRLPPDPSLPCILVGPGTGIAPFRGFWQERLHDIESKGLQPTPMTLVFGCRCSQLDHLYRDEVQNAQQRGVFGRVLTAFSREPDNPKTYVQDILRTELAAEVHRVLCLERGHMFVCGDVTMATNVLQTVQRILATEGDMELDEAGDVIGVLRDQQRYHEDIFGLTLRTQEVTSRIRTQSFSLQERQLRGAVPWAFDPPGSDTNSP

hnNOS = molecular target: T2, hnNOS (Homo sapiens, UniProt P29475); settings: DAN assay, HEK293 cells transfected with NOS isoform; cited from earlier work
T2 construct: expressed in transfected cells; host or cells: HEK293

hiNOS = molecular target: T3, hiNOS (Homo sapiens, UniProt P35228); settings: DAN assay, HEK293 cells transfected with NOS isoform; cited from earlier work
T3 construct: expressed in transfected cells; host or cells: HEK293

LPS Induced iNOS = settings: rat; cited from earlier work

T2 sequence (P29475 whole entry, canonical isoform): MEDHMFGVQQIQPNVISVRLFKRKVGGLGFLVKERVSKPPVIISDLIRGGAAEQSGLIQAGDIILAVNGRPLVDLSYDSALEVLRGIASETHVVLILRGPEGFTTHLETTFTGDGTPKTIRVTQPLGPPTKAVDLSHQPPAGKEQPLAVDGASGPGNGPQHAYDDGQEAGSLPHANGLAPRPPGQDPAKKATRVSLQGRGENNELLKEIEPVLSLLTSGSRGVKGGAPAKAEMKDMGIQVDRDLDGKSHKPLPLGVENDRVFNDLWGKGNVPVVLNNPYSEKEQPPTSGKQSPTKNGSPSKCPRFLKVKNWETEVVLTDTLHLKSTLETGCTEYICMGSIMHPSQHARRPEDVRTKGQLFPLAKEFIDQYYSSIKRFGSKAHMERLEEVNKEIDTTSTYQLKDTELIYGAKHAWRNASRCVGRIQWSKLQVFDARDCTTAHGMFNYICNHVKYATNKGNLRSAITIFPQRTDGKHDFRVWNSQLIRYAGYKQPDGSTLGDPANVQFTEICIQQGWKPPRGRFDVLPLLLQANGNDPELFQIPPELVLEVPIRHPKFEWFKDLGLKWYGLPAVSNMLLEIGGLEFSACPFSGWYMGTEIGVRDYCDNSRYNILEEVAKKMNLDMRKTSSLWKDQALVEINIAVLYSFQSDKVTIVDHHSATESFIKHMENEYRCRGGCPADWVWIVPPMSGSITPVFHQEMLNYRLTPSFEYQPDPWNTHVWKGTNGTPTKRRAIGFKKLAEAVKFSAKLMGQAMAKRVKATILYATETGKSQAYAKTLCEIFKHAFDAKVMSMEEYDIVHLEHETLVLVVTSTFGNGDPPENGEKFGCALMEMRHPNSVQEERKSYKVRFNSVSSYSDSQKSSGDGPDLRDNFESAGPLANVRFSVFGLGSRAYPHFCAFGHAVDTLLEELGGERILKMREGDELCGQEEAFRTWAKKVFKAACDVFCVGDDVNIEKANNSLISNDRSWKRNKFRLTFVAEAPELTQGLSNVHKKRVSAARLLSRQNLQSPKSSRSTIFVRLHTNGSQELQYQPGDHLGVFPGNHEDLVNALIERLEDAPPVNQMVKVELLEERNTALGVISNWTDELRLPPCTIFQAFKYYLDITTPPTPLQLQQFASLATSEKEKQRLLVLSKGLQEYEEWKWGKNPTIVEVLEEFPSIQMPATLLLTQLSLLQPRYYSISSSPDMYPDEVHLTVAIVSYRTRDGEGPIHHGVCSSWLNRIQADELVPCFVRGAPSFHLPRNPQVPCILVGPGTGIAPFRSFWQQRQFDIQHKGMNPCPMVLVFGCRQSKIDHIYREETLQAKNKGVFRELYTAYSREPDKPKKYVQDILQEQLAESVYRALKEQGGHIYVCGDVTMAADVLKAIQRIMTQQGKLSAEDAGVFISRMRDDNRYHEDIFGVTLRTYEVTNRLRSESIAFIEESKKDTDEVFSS

Compound | Weight % Change, Adsorption ([2]; 5 Percent Relative Humidity) | Weight % Change, Desorption ([2]; 5 Percent Relative Humidity) | Weight % Change, Adsorption ([2]; 15 Percent Relative Humidity) | Weight % Change, Desorption ([2]; 15 Percent Relative Humidity) | Weight % Change, Adsorption ([2]; 25 Percent Relative Humidity) | Weight % Change, Desorption ([2]; 25 Percent Relative Humidity) | Weight % Change, Adsorption ([2]; 35 Percent Relative Humidity) | Weight % Change, Desorption ([2]; 35 Percent Relative Humidity) | Weight % Change, Adsorption ([2]; 45 Percent Relative Humidity) | Weight % Change, Desorption ([2]; 45 Percent Relative Humidity) | Weight % Change, Adsorption ([2]; 55 Percent Relative Humidity) | Weight % Change, Desorption ([2]; 55 Percent Relative Humidity) | Weight % Change, Adsorption ([2]; 65 Percent Relative Humidity) | Weight % Change, Desorption ([2]; 65 Percent Relative Humidity) | Weight % Change, Adsorption ([2]; 75 Percent Relative Humidity) | Weight % Change, Desorption ([2]; 75 Percent Relative Humidity) | Weight % Change, Adsorption ([2]; 85 Percent Relative Humidity) | Weight % Change, Desorption ([2]; 85 Percent Relative Humidity) | Weight % Change, Adsorption ([2]; 95 Percent Relative Humidity) | hygroscopicity [2] | also measured
CC(=O)O.CN(CCCNCc1ccc2c(c1)OCO2)c1nc(-n2ccnc2)ns1 [Compound 2 acetate, N′-Benzo[1,3]dioxol-5-ylmethyl-N-(3-imidazol-1-yl-[1,2,4]thiadiazol-5-yl)-N-methyl-propane-1,3-diamine acetate salt] | <1% | <1% | <1% | <1% | <1% | <1% | <1% | <1% | <1% | <1% | <1% | <1% | <1% | <1% | <1% | <1% | <3% | <3% | <5% | significantly hygroscopic at high RH | solubility ([1]; acetonitrile, organic solvent or mixture): 2100 µg/mL; solubility ([1]; dichloromethane, organic solvent or mixture): 10000 µg/mL; solubility ([1]; ethanol, organic solvent or mixture): 8500 µg/mL; solubility ([1]; ethyl acetate, organic solvent or mixture): 2000 µg/mL; solubility ([1]; hexanes, organic solvent or mixture): 3 µg/mL; solubility ([1]; isopropanol, organic solvent or mixture): 3700 µg/mL; solubility ([1]; methanol, organic solvent or mixture): 58300 µg/mL; solubility ([1]; propylene glycol, organic solvent or mixture): 36700 µg/mL; solubility ([1]; water): 44600 µg/mL; solubility ([1]; water:ethanol:propylene glycol (40:40:20), aqueous with cosolvent or surfactant or cyclodextrin): 101000 µg/mL; Weight % Change, Desorption ([2]; 95 Percent Relative Humidity): <5%; weight gain ([2]; over the range of 5 to 85% relative humidity (RH)): minimal weight gain
CN(CCCNCc1ccc2c(c1)OCO2)c1nc(-n2ccnc2)ns1.O=C(O)CCCCC(=O)O [Compound 2 adipate, N′-Benzo[1,3]dioxol-5-ylmethyl-N-(3-imidazol-1-yl-[1,2,4]thiadiazol-5-yl)-N-methyl-propane-1,3-diamine adipate salt] | <0% | <0% | <0% | <0% | <0% | <0% | <0% | <0% | <1% | <1% | <1% | <1% | <1% | <1% | <2% | <2% | <3% | <3% | >6% | hygroscopic, especially at elevated humidities | Weight % Change, Desorption ([2]; 95 Percent Relative Humidity): >6%; initial weight loss upon equilibration [2]: less than 1%; total weight gain [2]: over 6%
CN(CCCNCc1ccc2c(c1)OCO2)c1nc(-n2ccnc2)ns1.Cl [Compound 2 hydrochloride, N′-Benzo[1,3]dioxol-5-ylmethyl-N-(3-imidazol-1-yl-[1,2,4]thiadiazol-5-yl)-N-methyl-propane-1,3-diamine hydrochloride salt] | <−1% | <−2% | <−1% | <−1% | <−1% | <−1% | <−1% | <−1% | <−1% | <−1% | <−1% | <0% | <0% | <0% | <0% | <1% | <1% | <2% | <5% | not hygroscopic | Weight % Change, Desorption ([2]; 95 Percent Relative Humidity): <5%; initial weight loss upon equilibration [2]: < 1%; total weight gain [2]: < 5%
CN(CCCNCc1ccc2c(c1)OCO2)c1nc(-n2ccnc2)ns1 [Compound 2, N′-Benzo[1,3]dioxol-5-ylmethyl-N-(3-imidazol-1-yl-[1,2,4]thiadiazol-5-yl)-N-methyl-propane-1,3-diamine] |  |  |  |  |  |  |  |  |  |  |  |  |  |  |  |  |  |  |  | not hygroscopic | initial weight loss upon equilibration [2]: approximately 0.16%; total weight gain [2]: approximately 0.64%; EC50 (heNOS): > 10000 nM; EC50 (hnNOS): > 1000 nM; EC50 (hiNOS): < 1000 nM; LPS Induced iNOS In Vivo, ED50 (LPS Induced iNOS): + ((+), ED50 <10)
Benzo[1,3]dioxol-5-ylmethyl-{2-[2-(2-imidazol-1-yl-6-methyl-pyrimidin-4-yl)-pyrrolidin-1-yl]-ethyl}-amine [Compound 1] |  |  |  |  |  |  |  |  |  |  |  |  |  |  |  |  |  |  |  |  | EC50 (heNOS): > 10000 nM; EC50 (hnNOS): > 1000 nM; EC50 (hiNOS): < 1000 nM; LPS Induced iNOS In Vivo, ED50 (LPS Induced iNOS): + ((+), ED50 <10)
